The values below are quoted from earlier work in patent US6706285B1, “Enteric coated formulation of a benzimidazole derivative and method for preparation thereof” (Hanms Pharm. Co., Ltd., priority 1998, dated 2004).

The structures appear in SMILES notation. Like-named read-outs stand apart in the source and are kept apart here.

On to `COc1ccc2[nH]c([S+]([O-])Cc3ncc(C)c(OC)c3C)nc2c1` (stereo not drawn) [omeprazole, 5-methoxy-2[[(4-methoxy-3,5-dimethyl-2-pyridinyl)methyl]sulfinyl]-1H-benzimidazole], for which the half-life result (acidic condition at a pH of 4 or less) is “less than 10 minutes”, the half-life entry (at a pH of 11) is recorded as “about 300 days” and the half-life entry (neutral condition at a pH of about 7.0) is “about 14 hours”.
